According to ChEMBL document CHEMBL4402577, “Discovery and Optimization of a Compound Series Active against Trypanosoma cruzi, the Causative Agent of Chagas Disease” (J Med Chem, 2020):
≈ marks a conversion by molar mass, not a printed value. Calls of active or inactive are those of the source. No cut-off for these calls is given here.

How the values were obtained:
[1] = system: Trypanosoma cruzi; assay: Antitrypanosomal activity against Trypanosoma cruzi Tulahuen strain C2C4 trypomastigotes infected in rat L6 cells incubated for 96 hrs by photometric method based assay; format: functional, organism-based; details: Tulahuen strain C2C4, L6, 96 h
[2] = system: L6; assay: Cytotoxicity against rat L6 cells incubated for 70 hrs by resazurin dye based assay; format: cell-based; details: L6, 70 h
[3] = Selectivity ratio, EC50 for cytotoxicity against rat L6 cells to EC50 for antitrypanosomal activity against Trypanosoma cruzi Tulahuen strain C2C4 trypomastigotes infected in rat L6 cells; format: toxicity, cell-based; details: read-out: Ratio EC50
[4] = Kinetic aqueous solubility of compound in DMSO by nephelometric analysis; format: physicochemical; details: read-out: Kinetic_solubility
[5] = Intrinsic clearance in CD1 mouse liver microsomes at 0.5 uM measured up to 30 mins in presence of NADPH by UPLC-MSMS analysis; format: ADME, Microsome; details: 0.5 h
[6] = Fraction unbound in NMRI mouse plasma at 30 mg/kg, iv by UPLC-MS/MS analysis; format: ADME, organism-based
[7] = system: Trypanosoma cruzi; assay: Antitrypanosomal activity against Trypanosoma cruzi Brazil strain trypomastigotes coexpressing luciferase infected in BALB/c mouse model of acute chagas disease assessed as reduction in parasite level at 30 mg/kg, ip treated 3 days post infection and measured on day 5 and 10; format: functional, organism-based
[8] = system: Trypanosoma cruzi; assay: Antitrypanosomal activity against Trypanosoma cruzi Brazil strain trypomastigotes coexpressing luciferase infected in BALB/c mouse model of acute chagas disease assessed as reduction in parasite level at 30 mg/kg, po treated 3 days post infection and measured on day 5 and 10; format: functional, organism-based
[9] = Toxicity in ip dosed BALB/c mouse model of acute chagas disease assessed as maximum tolerated dose; format: organism-based; details: in vivo

EC50 [1]	EC90 [1]	solubility kinetic [4]	intrinsic clearance [5]	SMILES	EC50 [2]	selectivity ratio [3]	fraction unbound [6]	Activity [7]	Activity [8]	MTD [9]
0.026 µM	0.038 µg/mL (≈ 0.111 µM)	73 µM (≈ 25.1 µg/mL)	3.2 mL/min/g	CC(=O)Nc1ccc2[nH]c(=O)n([C@H]3CC[C@H](C(C)C)CC3)c(=O)c2c1	3.8 µM	150	0.028	Active	Active	
1.2 µM		< 17 µM	1.7 mL/min/g	CC[C@H]1CC[C@@H](n2c(=O)[nH]c3ncc(N)cc3c2=O)CC1	250 µM	210				
0.1 µM		< 28 µM	15 mL/min/g	CC(=O)Nc1cnc2[nH]c(=O)n([C@H]3CC[C@@H](C(C)(C)C)CC3)c(=O)c2c1	15 µM	150				
0.57 µM		17 µM (≈ 5.14 µg/mL)	4.8 mL/min/g	CC(C)[C@H]1CC[C@@H](n2c(=O)[nH]c3ncc(N)cc3c2=O)CC1	46 µM	81				
0.38 µM		15 µM (≈ 5.17 µg/mL)	10 mL/min/g	CC(=O)Nc1cnc2[nH]c(=O)n([C@H]3CC[C@@H](C(C)C)CC3)c(=O)c2c1	16 µM	42				
4.3 µM		180 µM (≈ 66.5 µg/mL)	2.7 mL/min/g	CC(=O)Nc1ccc2[nH]c(=O)n([C@H]3CC[C@@H](C(F)(F)F)CC3)c(=O)c2c1	18 µM	4.2				

SMILES	EC50 [1]	EC90 [1]	solubility kinetic [4]	intrinsic clearance [5]	EC50 [2]	selectivity ratio [3]	fraction unbound [6]	Activity [7]	Activity [8]	MTD [9]
CC(C)(C)[C@H]1CC[C@H](n2c(=O)[nH]c3ccc(N)cc3c2=O)CC1	0.063 µM			2 mL/min/g	21 µM	330	0.011	inactive	inactive	30 mg/kg
